The source of these data is patent US9732076B2, “Solid oral dosage formulation of HCV inhibitor in the amorphous state” (Boehringer Ingelheim International GmbH, priority 2013, dated 2017).

This data set can be described thus: Ames test / genotoxicity of degradation product. (The Ames test uses bacterial strains that need an amino acid and regain growth without it when mutated back.)

Take `C=C[C@@H]1C[C@]1(N)C(=O)O` [Compound X]: the “Ames result / genotoxicity” value was “Ames positive”.
